Target: human Edg-2 receptor (Homo sapiens, UniProt Q92633)
Test: Determination of Edg-2 receptor inhibition by FLIPR measurements (LPA-mediated calcium liberation)
Type: cell-based
Details: CHO cells overexpressing human Edg-2 receptor, LPA 100 nM, fluo-4 calcium fluorescence; read-out: Inhibitory concentrations IC50 for inhibition of the Edg-2 receptor
In short: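 IC50 was derived from % inhibition of the baseline-corrected peak fluo-4 signal relative to DMSO, measured in triplicate. Compound was added ~5 min before 100 nM LPA (18:1) to human Edg-2–expressing CHO cells in pH 7.5 HBSS buffer with probenecid and HEPES, and fluorescence was monitored ~3 min.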

Chain of human Edg-2 receptor (Q92633 whole entry): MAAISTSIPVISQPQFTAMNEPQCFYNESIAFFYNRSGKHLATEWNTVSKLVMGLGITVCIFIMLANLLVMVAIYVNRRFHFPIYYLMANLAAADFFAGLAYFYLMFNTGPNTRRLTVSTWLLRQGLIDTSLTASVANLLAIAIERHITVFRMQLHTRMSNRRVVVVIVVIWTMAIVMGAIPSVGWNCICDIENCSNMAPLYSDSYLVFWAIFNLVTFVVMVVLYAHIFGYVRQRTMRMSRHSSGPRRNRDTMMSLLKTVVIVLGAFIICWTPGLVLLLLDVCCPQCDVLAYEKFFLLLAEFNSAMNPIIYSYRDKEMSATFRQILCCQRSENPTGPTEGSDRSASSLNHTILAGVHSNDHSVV

Row | Structure (SMILES) | IC50 [µM]
1 | CCc1ccc(C(=O)NC2(C(=O)O)CCCCCC2)cc1OCCc1cccc(C)c1 [Example 62, 1-[4-Ethyl-3-(2-m-tolyl-ethoxy)-benzoylamino]-cycloheptanecarboxylic acid] | < 0.1
2 | COc1ncc(C(=O)N[C@]2(C(=O)O)CC[C@H](C)CC2)cc1OCCc1cccc(CCO)c1 [Example 91, cis-1-[(5-{2-[3-(2-Hydroxy-ethyl)-phenyl]-ethoxy}-6-methoxy-pyridine-3-carbonyl)-amino]-4-methyl-cyclohexanecarboxylic acid] | < 0.1
3 | COc1ccc(C(=O)NC2(C(=O)O)CCCC(=O)CC2)cc1OCCc1cccc(C)c1 (centres unmarked) [Example 52, 1-[4-Methoxy-3-(2-m-tolyl-ethoxy)-benzoylamino]-4-oxo-cycloheptanecarboxylic acid] | 1 to 30
4 | COc1ncc(C(=O)N[C@]2(C(=O)O)CC[C@H](C)CC2)cc1OCCc1cccc(C)c1 [Example 79, cis-1-{[6-Methoxy-5-(2-m-tolyl-ethoxy)-pyridine-3-carbonyl]-amino}-4-methyl-cyclohexanecarboxylic acid] | < 0.1
5 | CC[C@H]1CC[C@](NC(=O)c2cnc(OC)c(-c3cccc(C(F)(F)F)c3F)c2)(C(=O)O)CC1 [Example 304] | < 0.1
6 | COc1ncc(C(=O)NC2(C(=O)O)CCCCCC2)cc1-c1cccc(Cl)c1 [Example 94, 1-{[5-(3-chloro-phenyl)-6-methoxy-pyridyl-3-carbonyl]-amino}-cycloheptanecarboxylic acid] | 0.1 to 1
7 | COc1ccc(C(=O)NC2(C(=O)O)CCCCCCC2)cc1OCCc1cccc(C)c1 [Example 23, 1-[4-Methoxy-3-(2-m-tolyl-ethoxy)-benzoylamino]-cyclooctanecarboxylic acid] | 0.1 to 1
8 | Cc1cccc(CCOc2cc(C(=O)N[C@]3(C(=O)O)CC[C@H](C)CC3)ccc2OCCO)c1 [Example 123, cis-1-[4-(2-Hydroxy-ethoxy)-3-(2-m-tolyl-ethoxy)-benzoylamino]-4-methyl-cyclohexanecarboxylic acid] | < 0.1
9 | COc1cccc(CCOc2cc(C(=O)NC3(C(=O)O)CCCCCC3)ccc2OC)c1 [Example 7] | < 0.1
10 | COc1ccc(C(=O)NC2(C(=O)O)CCCCCC2)cc1OCCc1cc(F)ccc1F [Example 20] | < 0.1
11 | CC[C@H]1CC[C@](NC(=O)c2cnc(OC)c(-c3cccc(Cl)c3Cl)c2)(C(=O)O)CC1 [Example 300] | < 0.1
12 | C=CC1CC1(NC(=O)c1ccc(OC)c(OCCc2cccc(C)c2)c1)C(=O)O (centres unmarked) [Example 40] | 0.1 to 1
13 | C[C@H]1CC[C@](NC(=O)c2ccc(OCCO)c(OCCc3cccc(Cl)c3)c2)(C(=O)O)CC1 [Example 119, cis-1-[3-[2-(3-Chloro-phenyl)-ethoxy]-4-(2-hydroxy-ethoxy)-benzoylamino]-4-methyl-cyclohexanecarboxylic acid] | < 0.1
14 | COc1ccc(C(=O)NC2(C(=O)O)CCC(=O)CC2)cc1OCCc1cccc(C)c1 [Example 55, 1-[4-Methoxy-3-(2-m-tolyl-ethoxy)-benzoylamino]-4-oxo-cyclohexanecarboxylic acid] | 0.1 to 1
15 | Cc1cccc(CCOc2cc(C(=O)NC3(C(=O)O)CCCCCC3)ccc2Cl)c1 [Example 64, 1-[4-Chloro-3-(2-m-tolyl-ethoxy)-benzoylamino]-cycloheptanecarboxylic acid] | 0.1 to 1
16 | COc1ccc(C(=O)NC2(C(=O)O)CCC(C(F)(F)F)CC2)cc1OCCc1cccc(C)c1 (centres unmarked) [Example 28] | < 0.1

Other lines, results leading:

Row | IC50 [µM] | Structure (SMILES)
17 | 0.1 to 1 | COc1ccc(C(=O)N[C@]2(C(=O)O)CC[C@@H](C)CC2)cc1-c1cccc(C(F)(F)F)c1 [Example 334]
18 | < 0.1 | COc1ncc(C(=O)N[C@]2(C(=O)O)CC[C@H](C)CC2)cc1-c1cccc(C(F)(F)F)c1 [Example 317]
19 | 0.1 to 1 | C[C@H]1CC[C@@](NC(=O)c2ccc(C(F)(F)F)c(-n3ccc4ccccc43)c2)(C(=O)O)CC1 [Example 452, 1-(3-Indol-1-yl-4-trifluoromethyl-benzoylamino)-4-methyl-cyclohexanecarboxylic acid]
20 | < 0.1 | CC[C@H]1CC[C@@](NC(=O)c2cnc(OC)c(-c3cccc(C(F)(F)F)c3)c2)(C(=O)O)CC1 [Example 316]
21 | < 0.1 | COc1ccc(C(=O)N[C@]2(C(=O)O)CC[C@H](C)CC2)cc1-c1cccc(OC(F)(F)F)c1 [Example 329]
22 | < 0.1 | COc1ccc(-c2cc(C(=O)N[C@]3(C(=O)O)CC[C@H](C)CC3)cnc2OC)cc1Cl [Example 319]
23 | < 0.1 | CC[C@H]1CC[C@@](NC(=O)c2cnc(OC)c(OCCc3cccc(CCO)c3)c2)(C(=O)O)CC1 [Example 424, trans-4-Ethyl-1-[(5-{2-[3-(2-hydroxy-ethyl)-phenyl]-ethoxy}-6-methoxy-pyridine-3-carbonyl)-amino]-cyclohexanecarboxylic acid]
24 | 0.1 to 1 | COc1ccc(C(=O)NC2(C(=O)O)CC2)cc1OCCc1cccc(C)c1 [Example 368]
25 | < 0.1 | COc1ncc(C(=O)N[C@]2(C(=O)O)CC[C@H](C(F)(F)F)CC2)cc1-c1cc(Cl)cc(C(F)(F)F)c1 [Example 380]
26 | < 0.1 | COc1c(F)cc(C(=O)N[C@]2(C(=O)O)CC[C@@H](C)CC2)cc1OCCc1cccc(CCO)c1 [Example 392, trans-1-(3-Fluoro-5-{2-[3-(2-hydroxy-ethyl)-phenyl]-ethoxy}-4-methoxy-benzoylamino)-4-methyl-cyclohexanecarboxylic acid]
27 | < 0.1 | COc1ncc(C(=O)N[C@]2(C(=O)O)CC[C@H](C(F)(F)F)CC2)cc1-c1cccc(Cl)c1Cl [Example 378]
28 | 0.1 to 1 | COc1ccc(C(=O)NC2(C(=O)O)CCCC(C)C2)cc1OCCc1cccc(C)c1 (centres unmarked) [Example 367]
29 | < 0.1 | COc1ncc(C(=O)N[C@]2(C(=O)O)CC[C@H](C)CC2)cc1-c1cc(F)cc(F)c1 [Example 410]
30 | < 0.1 | CC[C@H]1CC[C@](NC(=O)c2cnc(OC)c(OCCc3ccccc3)c2)(C(=O)O)CC1 [Example 358, cis-4-Ethyl-1-[(6-methoxy-5-phenethyloxy-pyridine-3-carbonyl)-amino]-cyclohexanecarboxylic acid]
31 | < 0.1 | COc1ncc(C(=O)N[C@]2(C(=O)O)CC[C@H](C(F)(F)F)CC2)cc1-c1cccc(OC(F)(F)F)c1 [Example 379]
32 | < 0.1 | CC[C@H]1CC[C@](NC(=O)c2cnc(OC)c(-c3cccc(F)c3)c2)(C(=O)O)CC1 [Example 409]
33 | < 0.1 | CC[C@H]1CC[C@@](NC(=O)c2cnc(OC)c(OCCc3cccc(OC(F)(F)F)c3)c2)(C(=O)O)CC1 [Example 398, trans-4-Ethyl-1-({6-methoxy-5-[2-(3-trifluoromethoxy-phenyl)-ethoxy]-pyridine-3-carbonyl}-amino)-cyclohexanecarboxylic acid]
34 | 0.1 to 1 | CC[C@H]1CC[C@](NC(=O)c2ccc(CCS(C)(=O)=O)c(OCCc3cccc(C)c3)c2)(C(=O)O)CC1 [Example 462, Cis-4-Ethyl-1-[4-(2-methanesulfonyl-ethyl)-3-(2-m-tolyl-ethoxy)-benzoylamino]-cyclohexanecarboxylic acid]
35 | < 0.1 | CC[C@H]1CC[C@@](NC(=O)c2ccc(OCCO)c(-c3cccc(C(F)(F)F)c3)c2)(C(=O)O)CC1 [Example 386, trans-4-Ethyl-1-{[6-(2-hydroxy-ethoxy)-3′-trifluoromethyl-biphenyl-3-carbonyl]-amino}-cyclohexanecarboxylic acid]

— patent US9018383B2, “Acylamino-substituted cyclic carboxylic acid derivatives and their use as pharmaceuticals” (Sanofi, priority 2009, dated 2015)
